Where two headings read alike, the source gives them in different places. Marks after values point to notes of the source that are not given here.
Columns and labels:
HIV-1 WT (IIIB) [1] = conditions: cited from earlier work; for EC50: MT-4 cells, MTT method, same laboratory, same method
[2] = tested on: HIV-1 K103N/Y181C double mutant (RES056); conditions: cited from earlier work
MT-4 cells = conditions: mock-infected MT-4 cells, MTT method, same laboratory; cited from earlier work
[3] = tested on: HIV-1 K103N/Y181C double mutant (RES056); assay: microbe, parasite or virus in culture; type: cell-based; conditions: Human immunodeficiency virus 1, MT4, read-out: EC50 RES056
Experimental: (§1) The biological results were determined as EC50 (anti-HIV potency), CC50 (cytotoxicity) and SI (selectivity index, the ratio of CC50/EC50). […]
(§2) compounds were made directly in flat-bottomed 96-well microtiter trays by adding 100 μL medium to the 25 μL stock solution and transferring 25 μL of this solution to another well that contained 100 μL medium using a Biomek 3000 robot (Beckman Instruments, Fullerton, CA). Untreated control HIV- and mock-infected cell samples were included for each sample. HIV-1 WT strain (IIIB), HIV-1 drug-resistant strains including […]
(§3) (50% cell culture infectious dose) or culture medium was added to either the infected or mock-infected wells of the microtiter tray. Mock-infected cells were used to evaluate the effect of test compounds on uninfected cells in order to assess its cytotoxicity.
(§4) Exponentially growing MT-4 cells were centrifuged for 5 min at 1000 rpm and the supernatant was discarded.
(§5) 50 μL volumes were transferred to the microtiter tray wells. Five days after infection, the viability of mock- and HIV-infected cells was examined spectrophotometrically by […]
(§6) concentration of the test compound that reduced the viability of the mock-infected MT- […]

HIV-1 WT (IIIB) [4] = assay: microbe, parasite or virus in culture; type: cell-based; conditions: Human immunodeficiency virus 1, IIIB, MT4; MT-4 cells, MTT method, mean ± SD, n ≥ 4; read-out: EC50 IIIB
Experimental: as §1, §2, §3, §4, §5, §6

[5] = Cytotoxicity in mock-infected MT-4 cells, MTT method; conditions: human
Experimental: as §1, §2, §3, §4, §5, §6

HIV-1 E138K = assay: microbe, parasite or virus in culture; type: cell-based; conditions: Human immunodeficiency virus 1, MT4, read-out: EC50 E138K
Experimental: as §2, §3, §4, §5, §6

HIV-1 L100I = assay: microbe, parasite or virus in culture; type: cell-based; conditions: Human immunodeficiency virus 1, MT4, read-out: EC50 L100I
Experimental: as §2, §3, §4, §5, §6

HIV-1 K103N = assay: Anti-HIV-1 activity against K103N mutant strain, MTT method in MT-4 cells; type: cell-based; conditions: Human immunodeficiency virus 1, MT4, read-out: EC50 K103N
From the text: (§7) According to the anti-HIV-1(WT) results, the promising compounds 18a(1–5), 18b(1–5) and 18c1 were chosen to further evaluate their inhibitory potency against the prevalent HIV-1 mutations, including L100I, K103N, Y181C, Y188L, E138K, and F227L/V106A. […]. page 20:
(§8) or mock-infected wells of the microtiter tray. Mock-infected cells were used to evaluate
(§9) supernatant was discarded.
(§10) Five days after infection,
(§11) 4 cells by 50%. […]

HIV-1 Y188L = assay: Anti-HIV-1 activity against Y188L mutant strain, MTT method in MT-4 cells; type: cell-based; conditions: Human immunodeficiency virus 1, MT4, read-out: EC50 Y188L
From the text: as §7, §8, §9, §10, §11

HIV-1 F227L/V106A = assay: Anti-HIV-1 activity against F227L/V106A mutant strain, MTT method in MT-4 cells; type: cell-based; conditions: Human immunodeficiency virus 1, MT4, read-out: EC50 F227L/V106A
From the text: as §7, §8, §9, §10, §11

HIV-1 Y181C = assay: Anti-HIV-1 activity against Y181C mutant strain, MTT method in MT-4 cells; type: cell-based; conditions: Human immunodeficiency virus 1, MT4, read-out: EC50 Y181C, MT-4 cells, MTT method, mean ± SD, n ≥ 4
From the text: as §8, §9, §10, §11

WT HIV-1 RT = molecular target: T1, WT HIV-1 RT (Human immunodeficiency virus type 1 group M subtype B, UniProt P04585); assay: biochemical
T1 construct: purchased Roche
Experimental: Section 4. HIV-1 RT inhibition assays
A reverse transcriptase (RT) assay kit produced by Roche was selected for the RT inhibition assay.3 All the reagents for performing the RT reaction came with the kit and the ELSIA procedures for RT inhibition assay was carried out following the description in the kit protocol. Briefly, the reaction mixture containing template/primer complex, viral nucleotides (dNTPs) and RT in the incubation buffer with or without inhibitors was incubated for 1 h at 37 °C . After that, the reaction mixture was transferred to a streptavidine coated microtiter plate and incubated for another 1 h at 37 °C to make sure retranscriptional cDNA chain that consisted biotin labeled dNTPs bound to streptavidine. Then unbound dNTPs were removed using washing buffer and anti-DIG-POD working solution was added. After incubation for 1 h at 37 °C , the DIG-labeled dNTPs incorporated in cDNA were bound to the anti-DIG-POD antibody. The unbound

CYP1A2 = molecular target: T2, CYP1A2 (Homo sapiens, UniProt P05177); assay: in vitro; conditions: microsomes
T2 sequence (P05177 1-516): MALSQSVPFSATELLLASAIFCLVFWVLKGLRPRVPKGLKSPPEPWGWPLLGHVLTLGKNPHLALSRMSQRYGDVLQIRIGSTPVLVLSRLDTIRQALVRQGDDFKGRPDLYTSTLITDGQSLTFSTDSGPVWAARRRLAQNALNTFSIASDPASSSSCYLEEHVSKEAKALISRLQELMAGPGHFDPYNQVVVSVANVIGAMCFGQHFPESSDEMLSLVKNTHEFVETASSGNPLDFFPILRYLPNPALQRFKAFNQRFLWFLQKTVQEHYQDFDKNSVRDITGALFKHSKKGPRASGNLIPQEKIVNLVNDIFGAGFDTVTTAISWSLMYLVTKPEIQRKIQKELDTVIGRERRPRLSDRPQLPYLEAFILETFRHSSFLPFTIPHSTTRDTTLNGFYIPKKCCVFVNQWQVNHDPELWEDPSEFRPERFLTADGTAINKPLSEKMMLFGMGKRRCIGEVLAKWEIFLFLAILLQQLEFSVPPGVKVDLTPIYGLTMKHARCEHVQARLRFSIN
From the text: (§12) Section 8. CYP enzyme inhibition assay […]
(§13) Agilent 1200 LC/MSD (Agilent, USA).

CYP2C19 = CYP2C19 (Homo sapiens, UniProt P33261); assay: CYP enzyme inhibition assay in human liver microsome, CYP2C19; conditions: read-out: IC50 CYP2C19; human liver microsome, probe substrate S-mephenytoin
From the text: as §12, §13

CYP2C9 = CYP2C9 (Homo sapiens, UniProt P11712); assay: CYP enzyme inhibition assay in human liver microsome, CYP2C9; conditions: read-out: IC50 CYP2C9; human liver microsome, probe substrate diclofenac
From the text: as §12, §13

CYP3A4 = CYP3A4 (Homo sapiens, UniProt P08684); assay: in vitro; conditions: microsomes
From the text: as §12, §13

CYP2D6 = CYP2D6 (Homo sapiens, UniProt P10635); assay: in vitro
Experimental: Fig. S3 Decomposition of the binding free energy (per-residue) into contributions from electrostatic energy, vdw energy, polar solvation energy, and non-polar solvation energy. a K103N-18b1. b […]
Section 7. Water solubility measurements
Water solubility was measured in phosphate buffer at pH 7.0 by using an HPLC-UV method.17 Compounds were initially dissolved in DMSO at 10 mg/mL 10 μL of this stock solution was spiked into purified water (1 mL) with the final DMSO concentration being 1%. The mixture was ultrasonic for 2 h at room temperature and restored at room temperature overnight. The saturated solution was filtrated through a filter membrane (pore size = 0.22 μm) and transferred to other Eppendorf tubes for analysis by HPLC-UV. The sample was performed in triplicate. For quantification, a model LC-20AT HPLC-UV (SHIMADZU) system was used with an Inertsil ® ODS-SP-C18 column (150 mm × 4.6 mm, 5 μm) and MeOH/water as eluant. The flow rate was 1.0 mL/min, and injection volume was 20 μL. Aqueous concentration was determined by comparison of the peak area of the saturated solution with a standard curve plotted peak area versus known concentrations, which were prepared by solutions in MeOH at 200, […]
as §12
Section 9. Pharmacokinetics studies […]
approval from the Animal Ethical and Welfare Committee (AEWC). Ten male […]
Blood samples (200 μL of blood
Briefly, 50 μL of plasma was […]
tube, which was centrifuged at 3000g for 10 min. The supernatant layer was collected […]
Standard curves for 18b1 in […]
with an internal standard to blank plasma. Then all samples were quantified with an […]

[6] = at pH 7.0; cited from earlier work
[7] = set-up: method as in PMID 24008177; conditions: cited from earlier work

Sequence of CYP2D6 (P10635 whole entry): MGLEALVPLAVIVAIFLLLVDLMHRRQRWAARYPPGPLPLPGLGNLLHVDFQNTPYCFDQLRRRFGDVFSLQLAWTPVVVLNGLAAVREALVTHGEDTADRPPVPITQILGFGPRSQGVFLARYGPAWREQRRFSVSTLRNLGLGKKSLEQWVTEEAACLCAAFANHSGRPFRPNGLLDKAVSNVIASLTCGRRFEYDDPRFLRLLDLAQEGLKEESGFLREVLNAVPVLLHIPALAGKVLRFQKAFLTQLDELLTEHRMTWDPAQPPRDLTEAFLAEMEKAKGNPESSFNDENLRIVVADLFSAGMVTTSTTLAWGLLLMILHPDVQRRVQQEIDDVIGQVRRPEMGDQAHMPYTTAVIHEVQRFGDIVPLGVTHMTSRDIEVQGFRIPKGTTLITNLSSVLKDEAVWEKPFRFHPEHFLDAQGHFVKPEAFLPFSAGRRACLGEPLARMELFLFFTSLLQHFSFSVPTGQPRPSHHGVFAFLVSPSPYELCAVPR
Sequence of CYP2C19 (P33261 whole entry): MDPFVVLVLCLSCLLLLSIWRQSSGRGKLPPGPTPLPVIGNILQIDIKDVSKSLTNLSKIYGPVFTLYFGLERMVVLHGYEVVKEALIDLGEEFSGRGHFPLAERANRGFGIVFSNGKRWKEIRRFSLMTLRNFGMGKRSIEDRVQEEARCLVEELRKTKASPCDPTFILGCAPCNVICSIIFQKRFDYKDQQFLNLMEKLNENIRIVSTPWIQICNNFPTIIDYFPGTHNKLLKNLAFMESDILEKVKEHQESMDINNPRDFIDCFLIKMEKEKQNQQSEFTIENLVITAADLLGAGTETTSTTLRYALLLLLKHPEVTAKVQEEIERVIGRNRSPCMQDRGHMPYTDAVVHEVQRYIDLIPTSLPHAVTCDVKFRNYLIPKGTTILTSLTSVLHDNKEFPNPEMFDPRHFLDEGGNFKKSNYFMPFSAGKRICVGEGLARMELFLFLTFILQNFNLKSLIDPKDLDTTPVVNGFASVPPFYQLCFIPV
Sequence of CYP2C9 (P11712 whole entry): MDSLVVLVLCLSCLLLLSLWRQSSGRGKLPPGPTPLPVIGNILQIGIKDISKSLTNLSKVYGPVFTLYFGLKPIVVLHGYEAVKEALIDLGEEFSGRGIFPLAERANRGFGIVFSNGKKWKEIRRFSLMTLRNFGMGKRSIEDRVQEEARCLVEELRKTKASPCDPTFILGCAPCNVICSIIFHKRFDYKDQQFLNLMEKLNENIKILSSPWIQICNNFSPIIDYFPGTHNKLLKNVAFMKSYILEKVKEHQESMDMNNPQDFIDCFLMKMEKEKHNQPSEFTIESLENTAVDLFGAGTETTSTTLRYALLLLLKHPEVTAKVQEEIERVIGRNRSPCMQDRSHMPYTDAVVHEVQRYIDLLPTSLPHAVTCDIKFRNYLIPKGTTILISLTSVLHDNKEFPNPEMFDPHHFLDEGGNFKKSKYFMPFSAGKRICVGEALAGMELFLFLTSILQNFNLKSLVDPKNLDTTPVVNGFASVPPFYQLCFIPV
Sequence of CYP3A4 (P08684 whole entry): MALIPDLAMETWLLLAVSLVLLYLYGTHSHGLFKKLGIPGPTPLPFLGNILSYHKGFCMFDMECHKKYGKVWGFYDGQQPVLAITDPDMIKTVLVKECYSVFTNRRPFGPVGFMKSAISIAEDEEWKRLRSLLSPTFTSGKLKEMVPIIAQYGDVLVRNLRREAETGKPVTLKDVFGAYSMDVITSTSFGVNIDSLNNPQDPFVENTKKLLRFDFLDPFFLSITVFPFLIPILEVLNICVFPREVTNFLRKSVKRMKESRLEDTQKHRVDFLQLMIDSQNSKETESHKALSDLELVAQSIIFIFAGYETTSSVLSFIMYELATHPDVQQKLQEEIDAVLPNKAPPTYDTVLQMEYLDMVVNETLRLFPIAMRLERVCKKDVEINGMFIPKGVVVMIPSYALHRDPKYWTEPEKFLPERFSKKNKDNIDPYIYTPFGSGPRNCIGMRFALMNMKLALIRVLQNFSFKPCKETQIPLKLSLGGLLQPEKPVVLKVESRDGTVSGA

In the case of `Cn1c(Cn2ccc(C(F)(F)F)c(Oc3cc(Cl)cc(C#N)c3)c2=O)n[nH]c1=O` [DOR, doravirine], the EC50 (HIV-1 WT (IIIB) [1]) is given as 13 ± 4 nM, the “SI IIIB” value (HIV-1 WT (IIIB) [1]; ratio of CC50/EC50) is given as >21,940 and the EC50 ([2]; MT-4 cells, MTT method, same laboratory, same method) is given as 15 ± 6 nM. The “SI RES056” value ([2]; ratio of CC50/EC50) was over 20136 and the CC50 (MT-4 cells) was over 294000 nM.
In the case of `O=C1Nc2ccc(Cl)cc2[C@@](C#CC2CC2)(C(F)(F)F)O1` [EFV, efavirenz], the EC50 [3] is reported as 300 ± 190 nM, the EC50 (HIV-1 WT (IIIB) [4]) is reported as 3.7 ± 0.67 nM and the CC50 at 5 days [5] is reported as over 6330 nM. For the same compound, the EC50 (HIV-1 E138K) was 6.5 ± 1.7 nM, the EC50 (HIV-1 L100I) was 53 ± 28 nM and the EC50 (HIV-1 K103N) was 120 ± 24 nM. For the same compound, the EC50 (HIV-1 Y188L) was 250 ± 56 nM and the EC50 (HIV-1 F227L/V106A) was 260 ± 100 nM.
With `Cc1cc(C#N)cc(C)c1Oc1nc(Nc2ccc(C#N)cc2)nc(N)c1Br` [ETR, etravirine] the EC50 [3] was 76 ± 25 nM, the EC50 (HIV-1 WT (IIIB) [4]) was 3.3 ± 0.38 nM and the EC50 (HIV-1 E138K) was 18 ± 7.2 nM. The EC50 (HIV-1 K103N) was 4.3 ± 1 nM, the EC50 (HIV-1 Y181C) was 18 ± 3.8 nM and the EC50 (HIV-1 Y188L) was 25 ± 7.6 nM. For the same compound, the EC50 (HIV-1 F227L/V106A) was 25 ± 7.2 nM, the IC50 (WT HIV-1 RT) was 1350 ± 350 nM and the IC50 at 10 min (CYP1A2) was over 10000 nM. For the same compound, the IC50 (CYP2C19) was 496 nM, the IC50 (CYP2C9) was 277 nM and the IC50 at 10 min (CYP3A4) was over 10000 nM. The IC50 at 10 min (CYP2D6; human, microsomes, IC50 CYP2D6) was over 10000 nM, the IC50 (CYP2D6; read-out: IC50 CYP2D6, human liver microsome, probe substrate dextromethorphan) was 12000 nM and the water solubility [6] was <1^e μg/mL. The “oral bioavailability (F)” value [7] was “undetectable”.
For `Cc1ccnc2c1NC(=O)c1cccnc1N2C1CC1` [NVP, Nevirapine], the EC50 [3] was over 15000 nM, the EC50 (HIV-1 WT (IIIB) [4]) was 190 ± 76 nM and the CC50 at 5 days [5] was over 15000 nM. The EC50 (HIV-1 L100I) was 2230 ± 980 nM, the EC50 (HIV-1 K103N) was 6040 ± 2660 nM and the EC50 (HIV-1 Y181C) was 7400 ± 1780 nM. It also gave an EC50 (HIV-1 Y188L) of over 15000 nM and an EC50 (HIV-1 F227L/V106A) of over 15000 nM.
In the case of `Cc1cc(/C=C/C#N)cc(C)c1Nc1ccnc(Nc2ccc(C#N)cc2)n1` [RPV, rilpivirine], the IC50 (WT HIV-1 RT) is listed as 430 ± 87 nM and the EC50 (HIV-1 WT (IIIB) [1]) is listed as 1 ± 0.27 nM.
